Measurements taken from patent US20240190855A1 (Relay Therapeutics, Inc., priority 2021, published 2024).

Target: T1, CDK2/Cyclin E complex (Homo sapiens, UniProt P24941)
T1 construct: purchased Eurofins 14-475
Assay: CDK2/Cyclin E fluorescence-based microfluidic mobility shift assay (CDK2 Biochemical Caliper Assay)
Settings: read-out: Biochemical CDK2/CyclinE Caliper IC50
Experimental: Compounds of the present disclosure were tested in a CDK2/Cyclin E fluorescence-based microfluidic mobility shift assay (PerkinElmer).
The active wild type CDK2/Cyclin E complex was purchased from Eurofins (14-475). Compound stocks were prepared in DMSO and were serially diluted into 11 concentrations by 3-fold dilution. […] Compounds were incubated in the presence of CDK2/Cyclin E complex and ATP for 30 minutes at room temperature. Catalytic reaction was initiated with the addition of 5 uL of a 4× peptide solution containing 6 uM fluorescently label substrate peptide, FL Peptide 18 (aa sequence 5-FAM-QSPKKG, PerkinElmer, 760362) in 1× reaction buffer.
The final reaction components were 0.1 nM CDK2/Cyclin E, 2000 uM ATP and 1.5 uM FL Peptide 18 and 1% DMSO. Reactions were incubated RT for 20 hr and terminated with 75 uL of a stopping solution containing 0.5 M EDTA. Samples were analyzed using a LabChip EZ reader (PerkinElmer).

| IC50 | Compound |
| --- | --- |
| ≤ 100 nM | COCc1cc2c(Nc3cc([C@H]4C[C@@H](OC(=O)NC(C)(C)COC)CO4)[nH]n3)nccn2n1 [Example 695] |
| ≤ 100 nM | Cn1nc(OCC(F)F)cc1C(=O)Nc1cc([C@H]2C[C@@H](OC(=O)NC34CC(C3)C4)CO2)n[nH]1 [Example 887] |
| ≤ 100 nM | COCc1cc2c(Nc3cc([C@H]4C[C@@H](OC(=O)NC56CCC(CC5)CC6)CO4)[nH]n3)nccn2n1 [Example 684] |
| 1000 to 100000 nM | COCc1cc(C(=O)Nc2cc([C@H]3CC[C@@H](Oc4cncc(C)c4)C3)[nH]n2)n(C)n1 (single isomer, unassigned) [Example 383] |
| ≤ 100 nM | Cn1nc(CCOC(F)(F)F)cc1C(=O)Nc1cc([C@H]2C[C@@H](OC(=O)NC3(C)CC3)CO2)[nH]n1 [Example 791] |
| 1000 to 100000 nM | COCc1cc(C(=O)Nc2cc([C@H]3C[C@@](C)(CC(=O)NC(C)C)C3)[nH]n2)n(C)n1 [Example 532] |
| 250 to 1000 nM | COCc1cc(C(=O)Nc2cc([C@H]3C[C@@]4(CN(CC(C)C)C(=O)N4)C3)[nH]n2)n(C)n1 [Example 516] |
| ≤ 100 nM | COCc1cc2c(Nc3cc([C@H]4C[C@@H](OC(=O)N[C@@]5(C)CC5(F)F)CO4)[nH]n3)nccn2n1 (single isomer, unassigned) [Example 731] |
| ≤ 100 nM | Cn1nc(COC(F)(F)F)cc1C(=O)Nc1cc([C@H]2C[C@@H](OC(=O)NC3(C)COC3)CO2)[nH]n1 [Example 888] |
| ≤ 100 nM | COCc1nc2ccnc(Nc3cc([C@H]4C[C@@H](OC(=O)NC5(COC)CC5)CO4)[nH]n3)c2s1 [Example 682] |
| ≤ 100 nM | CCc1ccnnc1O[C@@H]1CC[C@H](c2cc(NC(=O)c3cc(COC)nn3C)n[nH]2)C1 (single isomer, unassigned) [Example 509] |
| 100 to 250 nM | COCc1cc(C(=O)Nc2cc([C@@H]3CC[C@H](Oc4cnccc4C4CC4)C3)[nH]n2)n(C)n1 (single isomer, unassigned) [Example 394] |
| ≤ 100 nM | COCc1cc2c(Nc3cc([C@H]4C[C@@H](OC(=O)N[C@@H](C)CC(F)(F)F)CO4)[nH]n3)nccn2n1 [Example 639] |
| ≤ 100 nM | COCc1cc2c(Nc3cc([C@H]4C[C@@H](OC(=O)N[C@H]5C[C@@H]5C)CO4)[nH]n3)nccn2n1 [Example 687] |
| ≤ 100 nM | Cn1nc(COC(F)(F)F)cc1C(=O)Nc1cc([C@H]2C[C@@H](OC(=O)NC3(C#N)CC3)CO2)[nH]n1 [Example 788] |
| 100 to 250 nM | COCc1cc2c(Nc3cc([C@H]4C[C@@H](OC(=O)N[C@@H](C)C5(C)COC5)CO4)[nH]n3)nccn2n1 [Example 688] |
| 100 to 250 nM | CC1(NC(=O)O[C@H]2CO[C@@H](c3cc(Nc4ccnc5nc[nH]c45)n[nH]3)C2)CC1 [Example 737] |
| ≤ 100 nM | COCc1cc(C(=O)Nc2cc([C@H]3CC[C@@H](Oc4nccnc4C(C)C)C3)[nH]n2)n(C)n1 (single isomer, unassigned) [Example 508] |

| IC50 | Compound |
| --- | --- |
| ≤ 100 nM | COCc1cc2c(Nc3cc([C@H]4C[C@@H](OC(=O)NC5CCC5)CO4)[nH]n3)nccn2n1 [Example 666] |
| 1000 to 100000 nM | COCc1cc(C(=O)Nc2cc([C@H]3CC[C@@H](c4cnc(C)cn4)C3)[nH]n2)n(C)n1 (single isomer, unassigned) [Example 576] |
| ≤ 100 nM | COCc1cc2c(Nc3cc([C@H]4C[C@@H](OC(=O)N[C@@H]5CC5(C)C)CO4)[nH]n3)nccn2n1 [Example 679] |
| ≤ 100 nM | COCc1cc2c(Nc3cc([C@H]4C[C@@H](OC(=O)N[C@H](C)C(F)F)CO4)[nH]n3)nccn2n1 [Example 752] |
| 250 to 1000 nM | COCc1cc(C(=O)Nc2cc([C@H]3CC[C@@H](Oc4ccc(C(C)C)nn4)C3)[nH]n2)n(C)n1 (single isomer, unassigned) [Example 415] |
| ≤ 100 nM | CC(C)NC(=O)O[C@H]1CO[C@@H](c2cc(Nc3nccn4nc(COC(F)F)cc34)n[nH]2)C1 [Example 667] |
| ≤ 100 nM | CC1(NC(=O)O[C@H]2CO[C@@H](c3cc(NC(=O)c4cnn(CCOC(F)(F)F)c4)n[nH]3)C2)CC1 [Example 886] |
| ≤ 100 nM | COCc1cc2c(Nc3cc([C@H]4C[C@@H](OC(=O)NC5(C6CC6)CC5)CO4)[nH]n3)nccn2n1 [Example 702] |
| ≤ 100 nM | COCc1cc2c(Nc3cc([C@H]4C[C@@H](OC(=O)NC5(C#N)CC5)CO4)[nH]n3)nccn2n1 [Example 698] |
| ≤ 100 nM | COCc1cc2c(Nc3cc([C@H]4C[C@@H](OC(=O)N[C@H](C)CC(F)(F)F)CO4)[nH]n3)nccn2n1 (single isomer, unassigned) [Example 757] |
| ≤ 100 nM | COCC1(NC(=O)O[C@H]2CO[C@@H](c3cc(NC(=O)c4cc(COC(F)(F)F)nn4C)n[nH]3)C2)CC1 [Example 885] |
| ≤ 100 nM | Cn1nc(COC(F)(F)F)cc1C(=O)Nc1cc([C@H]2C[C@@H](OC(=O)NC3(C)CC3)CO2)[nH]n1 [Example 704] |
| ≤ 100 nM | CC(C)NC(=O)O[C@@H]1CC[C@H](c2cc(NC(=O)c3cc(CN4CCC(F)(F)C4)nn3C)n[nH]2)C1 [Example 657] |
| 1000 to 100000 nM | COCc1cc(C(=O)Nc2cc([C@H]3C[C@@H](COc4cccnc4)C3)[nH]n2)n(C)n1 [Example 561] |
| 250 to 1000 nM | COCc1cc(C(=O)Nc2cc([C@@H]3CC[C@H](Oc4cn[nH]c4C(C)C)C3)[nH]n2)n(C)n1 [Example 628] |
| ≤ 100 nM | CC[C@H](C)NC(=O)O[C@H]1CO[C@@H](c2cc(Nc3nccn4nc(COC)cc34)n[nH]2)C1 [Example 675] |
| ≤ 100 nM | Cn1nc(COC(F)(F)F)cc1C(=O)Nc1cc([C@@H]2C[C@H](OC(=O)NC34CC(C#N)(C3)C4)CO2)[nH]n1 [Example 912] |

More lines, now with the values behind:

| Compound | IC50 |
| --- | --- |
| Cc1cc(CC(=O)Nc2cc([C@H]3C[C@@H](Oc4nnccc4C(C)C)CO3)[nH]n2)on1 [Example 406] | ≤ 100 nM |
| CC(C)(C)n1cnnc1O[C@H]1CO[C@@H](c2cc(Nc3nccn4nccc34)n[nH]2)C1 [Example 774] | ≤ 100 nM |
| Cc1ncccc1O[C@@H]1CC[C@H](c2cc(Nc3ccc4c(c3)C(C)(C)NC4=O)n[nH]2)C1 (single isomer, unassigned) [Example 546] | ≤ 100 nM |
| Cc1cn2nccc2c(Nc2cc(C3CCCC3)[nH]n2)n1 [Example 822] | 250 to 1000 nM |
| CC(C)c1ccnnc1O[C@H]1CC[C@@H](c2cc(Nc3nccc4ncsc34)n[nH]2)C1 [Example 437] | ≤ 100 nM |
| CC(C)c1[nH]ncc1OC[C@H]1C[C@H](c2cc(Nc3nccn4nccc34)n[nH]2)C1 [Example 583] | 1000 to 100000 nM |
| Cc1ccc(O[C@@H]2CC[C@H](c3cc(NC(=O)Cc4cc(C)no4)n[nH]3)C2)nn1 [Example 397] | 250 to 1000 nM |
| CC(C)c1[nH]ncc1OC[C@H]1C[C@@H](c2cc(Nc3nccn4nccc34)n[nH]2)C1 [Example 582] | ≤ 100 nM |
| Cc1cc(CC(=O)Nc2cc([C@H]3CC[C@@H](Oc4nnccc4C(C)C)C3)[nH]n2)on1 (single isomer, unassigned) [Example 97] | ≤ 100 nM |
| COCc1cc2c(Nc3cc([C@H]4CC[C@@H](OC(=O)NC(C)C)C4)[nH]n3)nccn2n1 (single isomer, unassigned) [Example 480] | ≤ 100 nM |
| COCc1nc2ccnc(Nc3cc([C@H]4CC[C@@H](Oc5nnccc5C(C)C)C4)[nH]n3)c2s1 (single isomer, unassigned) [Example 444] | ≤ 100 nM |
| COCc1cc(C(=O)Nc2cc([C@@H]3CC[C@H](Oc4cc(C(C)C)cnn4)C3)[nH]n2)n(C)n1 (single isomer, unassigned) [Example 493] | 100 to 250 nM |
| Cc1cc2ncnc(Nc3cc(C4CCCC4)[nH]n3)c2[nH]1 [Example 859] | 1000 to 100000 nM |
| CC(C)NC(=O)O[C@@H]1CC[C@H](c2cc(Nc3ncnc4ncsc34)n[nH]2)C1 [Example 425] | ≤ 100 nM |
| Cc1cc(CC(=O)Nc2cc([C@@H]3CC[C@H](Oc4nnccc4C(C)C)C3)[nH]n2)on1 (single isomer, unassigned) [Example 104] | ≤ 100 nM |
| c1cc2nc(Nc3cc(C4CCCC4)[nH]n3)ccn2n1 [Example 877] | 250 to 1000 nM |
| Cc1cc(CC(=O)Nc2cc([C@H]3CC[C@@H](n4cc(C(C)C)[nH]c4=O)C3)[nH]n2)on1 (single isomer, unassigned) [Example 93] | 1000 to 100000 nM |
| CC(C)NC(=O)O[C@H]1CC[C@@H](c2cc(Nc3cncc(OCCO)n3)n[nH]2)C1 (single isomer, unassigned) [Example 564] | ≤ 100 nM |
| COCc1cc2c(Nc3cc([C@H]4C[C@@H](Oc5[nH]ncc5C(C)(C)C)CO4)[nH]n3)nccn2n1 [Example 768] | ≤ 100 nM |
| COCc1cc2c(Nc3cc([C@H]4C[C@@H](COc5nnccc5C(C)C)C4)[nH]n3)nccn2n1 [Example 519] | ≤ 100 nM |
| CC(C)NC(=O)OC[C@H]1C[C@@H](c2cc(Nc3nccc4ncsc34)n[nH]2)C1 [Example 456] | ≤ 100 nM |
| Cc1cc(CC(=O)Nc2cc([C@@H]3CC[C@H](Oc4cccnc4)C3)[nH]n2)on1 (single isomer, unassigned) [Example 340] | 1000 to 100000 nM |
| COCc1cc2c(Nc3cc([C@@H]4CC[C@H](OC(=O)NC(C)C)C4)[nH]n3)nccn2n1 (single isomer, unassigned) [Example 481] | ≤ 100 nM |
| Cc1cn2nc(Nc3cc(C4CCCC4)[nH]n3)cc(C)c2n1 [Example 832] | 1000 to 100000 nM |
| Cc1cc(CC(=O)Nc2ncc([C@@H]3CC[C@H](OC(=O)NC(C)C)C3)s2)on1 (single isomer, unassigned) [Example 443] | ≤ 100 nM |
| COCc1cc2c(Nc3cc([C@H]4C[C@H](COc5nnccc5C(C)C)C4)[nH]n3)nccn2n1 [Example 520] | 1000 to 100000 nM |
| Cc1[nH]nc2nccc(Nc3cc(C4CCCC4)[nH]n3)c12 [Example 827] | 1000 to 100000 nM |
